PMC8887546, “Design and Synthesis of Brain Penetrant Glycopeptide Analogues of PACAP With Neuroprotective Potential for Traumatic Brain Injury and Parkinsonism” (Frontiers in drug discovery, 2022)

Tested on: C57BL/6 mice, diffuse TBI
Assay: Sleep-wake parameters (piezoelectric sleep cage) after TBI
Format: in vivo, mouse
Details: 10 mg/kg i.p. 30 min prior to TBI
Experimental: 30 min prior to TBI or sham injury, mice were randomly assigned to a therapeutic group and received an intraperitoneal injection of 2LS80Mel (10 mg/kg) or sterile saline (0.25 ml). Groups were as follows: TBI-2LS80Mel n = 17; TBI-vehicle n = 17; sham n = 22 (vehicle n = 11, 2LS80Mel n = 11).
Mice (19–24 g) were subjected to midline fluid percussion injury (mFPI) consistent with methods previously described ([Lifshitz, 2009]; [Harrison et al., 2014]; [Rowe et al., 2014a]; [Rowe et al., 2014b]; [Rowe et al., 2014c]). Mice were anesthetized using 5% isoflurane in 100% oxygen for 5 min and the head of the mouse was placed in a stereotaxic frame with continuously delivered isoflurane at 2.5% via nosecone. […] The injury hub was closed using a Luer-Loc cap and mice were placed in a heated recovery cage and monitored until they were ambulatory before being returned to their respective sleep cages.
For injury induction 24 h post-surgery, mice were re-anesthetized with 5% isoflurane delivered for 3 min. […] Injured mice were monitored for presence of a forearm fencing response and righting reflex times were recorded as indicators of injury severity ([Hosseini and Lifshitz, 2009]). […] After spontaneously righting, mice were placed in a heated recovery cage and monitored until they were ambulatory (approximately 5–15 min) before being returned to their piezoelectric sleep cage (see below). […]

## CC[C@H](C)[C@H](NC(=O)CNC(=O)[C@H](CC(=O)O)NC(=O)[C@H](CO)NC(=O)[C@@H](N)Cc1c[nH]cn1)C(=O)N[C@@H](Cc1ccccc1)C(=O)N[C@H](C(=O)N[C@@H](CC(=O)O)C(=O)N[C@@H](CO)C(=O)N[C@@H](Cc1ccc(O)cc1)C(=O)N[C@@H](CO)C(=O)N[C@@H](CCCNC(=N)N)C(=O)N[C@@H](Cc1ccc(O)cc1)C(=O)N[C@@H](CCCNC(=N)N)C(=O)N[C@@H](CCCCN)C(=O)N[C@@H](CCC(N)=O)C(=O)N[C@@H](CC(C)C)C(=O)N[C@@H](C)C(=O)N[C@H](C(=O)N[C@@H](CCCCN)C(=O)N[C@@H](CCCCN)C(=O)N[C@@H](Cc1ccc(O)cc1)C(=O)N[C@@H](CC(C)C)C(=O)N[C@@H](C)C(=O)N[C@@H](C)C(=O)N[C@H](C(=O)N[C@@H](CC(C)C)C(=O)N[C@@H](CO[C@@H]1O[C@H](CO[C@H]2O[C@H](CO)[C@H](O)[C@H](O)[C@H]2O)[C@@H](O)[C@H](O)[C@H]1O)C(N)=O)C(C)C)C(C)C)[C@@H](C)O [Compound 2LS80Mel]
  Cumulative minutes slept in the first 6 h post-injury: slept comparable minutes to uninjured sham animals
  Sleep in the first dark period: prevented this injury-induced increase in sleep
